Reference: patent US20180228801A1, “Method for Enhancing Learning Ability and Memory of Patients with Alzheimer's Disease using Mocetinostat” (National Taiwan Normal University, priority 2017, published 2018)

How the values were obtained:
[1] = system: primary hippocampus neurons; assay: Primary hippocampus neurons damaged by oligomeric Aβ25-35, immune-fluorescent staining (NeuN, MAP2); type: cell-based, mouse (C57BL/6J); conditions: 48 hours after 50 μM oligomeric Aβ25-35, vs group treated with Aβ25-35
Procedure: The method of culturing mouse primary hippocampus neurons follow from a modified method from the prior art (Seibenhener and Wooten, 2012), including: obtaining a 16-18 day old embryo from a C57BL/6J strain pregnant female mouse after euthanasia, obtaining hippocampus tissue of the embryo and digesting the tissue with 0.05% trypsin at 37° C. for 15 minutes, and seeding 3×10^4 cells per well in a 48-well plate coated with Poly-L-lysine (100 μg/mL); wherein the components of the medium includes: Neurobasal Medium® (Gibco™; ThermoFisher Scientific, USA) adding 2% of B-27® Additive (Gibco™; ThermoFisher), 0.5 mM of glutamine (Gibco™; ThermoFisher), 25 μM of glutamate (Sigma-Aldrich, USA), 20 unit/mL of penicillin/streptomycin solution (Gibco™; ThermoFisher Scientific, USA), 1 mM of 4-(2-hydroxyethyl)-1-piperazineethanesulfonic acid) (HEPES) (Sigma-Aldrich), and 1% of heat inactivated Donor Horse Serum (Gibco™; ThermoFisher). Primary hippocampus neurons are cultured in an incubator in an environment of 37° C. and 5% CO2.
In some embodiments, experiments should be performed when said cells are in an Alzheimer's disease state. […] Further, 50 μM of oligomeric Aβ25-35 are applied for 1 hour, and then a high dose (70 nM) and low dose (35 nm) of MGCD0103 is applied for 48 hours on day 9. Finally, the cells are collected for immune-fluorescent staining.
The collected cells are analyzed with immune-fluorescence staining. First, fixing the cells with 4% of paraformaldehyde (PFA) (Sigma-Aldrich) for 30 minutes; rinsing the cells three times with PBST with a time interval of 10 minutes so as to remove remaining PFA; blocking the cells with 10% fetal bovine serum (FBS) for 2 hours; adding NeuN (1:1000; Milipore, USA) and MAP2 (1:1000; Milipore, USA) primary antibodies and allowing reaction at 4° C. for 16 hours; then allowing reaction with secondary antibodies at 37° C. for 2 hours; finally, staining nucleus with […] (DAPI) (Sigma-Aldrich) and analyzing to obtain values such as numbers of neurons, lengths of synapses, and numbers of branches with a High Content Micro-Imaging Acquisition and Screening System and MetaXpress (purchased from Molecular Devices).

[2] = system: mice with oligomeric Aβ25-35 injected into bilateral hippocampal CA1; assay: Open Field Test; type: in vivo, mice (C57BL/6J); conditions: for time spent at the central area (anxiety): Aβ25-35 mice, vs Aβ25-35 alone
Procedure: (§1) Further, in some embodiments of the present invention, C57BL/6J strain male mice (12 week old) are used as a subject in need. After mice are allowed to adapt to the environment for 6 days, mice are anesthetized with Avertin (0.4 g/kg; purchased from Sigma). The mice are fixed on a stereotactic apparatus for operation, followed by injecting oligomeric Aβ25-35 (10 nM, 3 μL) into bilateral hippocampal CA1 (AP: […] relative to the bregma; ML: ±[…] relative to the midline; DV: […] relative to the skull) on day 7. MGCD0103 and equal volume of vehicle (saline) are intraperitoneal (i.p.) injected once a day from day 8, the day after said operation, for 29 days. On day 24, the Open Field Test is performed; on day 26, the EPM is performed; on day 28, the Y-maze is performed; on days 30 to 36, MWM is performed; and on day 37, mice are euthanized for pathological analysis.
In an embodiment, OFT is performed to said mice. The mice are placed in a central area of a white box (30 cm×30 cm×30 cm). Then, mice are allowed spontaneously walk for 10 minutes, and the time that mice spend at the central area (15 cm×15 cm×15 cm) in the first 5 minutes is recorded. Since mice tend to spend time at a peripheral area of an open field when anxious, observing the time spent in the central zone there by the mice will give an indication of the level of anxiety of the mice. In addition, counting the total distance that the mice have moved in the last 5 minutes may determine an index of spontaneous exercise ability of the mice. After finishing the test for each mouse, the box was wiped with 70% and 30% (v/v) of ethanol solution to remove remaining odor in order to avoid affecting other test results.

[3] = system: Aβ accumulation in hippocampal CA1; assay: Immunohistochemical staining, Aβ accumulation (6E10); type: in vivo, mice (C57BL/6J); conditions: Aβ25-35 mice
Procedure: as §1
The inventor collects the brain tissue by perfusion followed by fixing and dehydrating, then, 30 μm frozen sections are obtained by a freezing microtome (CMS3050S, Leica). […] After that, avidin-biotin complex (ABC) is detected 1 hour after staining. […] After all sections have been stained, they are then fixed on a slide, dried, dehydrated, mounted, and photographed for quantity (performed by Image Pro Plus, Meida Cyberetics, USA).

[4] = high dose 0.5 mg/kg i.p. once a day

Nc1ccccc1NC(=O)c1ccc(CNc2nccc(-c3cccnc3)n2)cc1 [MGCD0103, N-(2-Aminophenyl)-4-[[(4-pyridin-3-ylpyrimidin-2-yl)amino]methyl] benzamide]
lengths of neurites ([1]; high dose (70 nM)): significantly improved
numbers of neuron cells (NeuN+) ([1]; high dose (70 nM)): significantly improved
lengths of neurites ([1]; low dose (35 nM)): significantly improved
numbers of neuron cells (NeuN+) ([1]; low dose (35 nM)): significantly improved
time spent at the central area (anxiety) [2, 4]: significantly increase
time spent at the central area (anxiety) ([2]; low dose 0.01 mg/kg i.p. once a day): significantly increase
total moving distance (spontaneous exercise ability) [2, 4]: does not influence
total moving distance (spontaneous exercise ability) ([2]; low dose 0.01 mg/kg i.p. once a day, vs group treated with saline): reduced
Aβ accumulation within the hippocampal CA1 [3]: relieved
